Like-named read-outs stand apart in the source and are kept apart here.
Tests used:
[1] = Liver Microsome Stability Assay (rat); settings: rat liver microsomes, with NADPH, 1.0 uM compound
Description: (§3) Stability of a compound was assessed in the presence of liver microsomes from various sources—mouse, rat, monkey and human liver microsomes. 1.0 uM compound, 0.4% DMSO in 0.1 M Potassium Phosphate with 1.0 mg/mL liver microsomes, were incubated at 37° C. with or without 1 mM NADPH. The samples were quenched at 0, and 30 minutes.

[2] = Liver Microsome Stability Assay (mouse); settings: mouse liver microsomes, with NADPH, 1.0 uM compound
Description: as §3

[3] = Liver Microsome Stability Assay (human); settings: human liver microsomes, with NADPH, 1.0 uM compound
Description: as §3

[4] = Liver Microsome Stability Assay (monkey); settings: monkey liver microsomes, with NADPH, 1.0 uM compound
Description: as §3

[5] = tested on: IL-2-FL/Gaussia Luciferase; assay: Dox Induced IL2-FL-Gluc Assay; format: cell-based; settings: for IC50: 24 hr Dox induction, 293FRT/TO cells, read-out: 24 hr Dox Inducible IL2FLGluc 293FRT/TO: Mean IC50; for 24 hr Dox Inducible IL2FLGluc 293FRT/TO: IL2/PD1: ratio of IL2FLGluc IC50 to PD1ssGluc IC50
Description: (§1) Flp-In 293 T-REx™ cells were transfected with pcDNA™5/FRT/TO plasmid inserted with cDNA encoding Gaussia Luciferase fused to the 3′ end of cDNA encoding full length IL-2 (amino acids 1-153). Transfected cells were selected for resistance to the selectable markers Hygromycin and Blasticidin to create a stable cell line that contained the IL-2-FL/Gaussia Luciferase cDNA insert whose expression was regulated under the T-REx™ system. The day before assay, cells were trypsinized and plated in 384-well tissue culture plates. The next day, compound dilutions in DMSO/media containing doxycycline were added to the wells and incubated at 37° C., 5% CO2.
(§2) For chemical structures that include one or more stereoisomers, but are illustrated without indicating stereochemistry, the assay data refers to a mixture of stereoisomers.

[6] = tested on: PD1-ss+10aa/Gaussia Luciferase; assay: Dox-Induced PD1-ss-Gluc Assay; format: cell-based; settings: 24 hr Dox induction, 293FRT/TO cells, read-out: 24 hr Dox Inducible PD1ssGluc 293FRT/TO: Mean IC50
Description: as §1, with “PD1 signal sequence plus 10 amino” for “full length IL-2 (amino”, “(N-[…]-C) (SEQ ID NO: 1).” for “1-153).”, “PD1-ss+10aa/Gaussia” for “IL-2-FL/Gaussia”
as §2

[7] = '<=>' given where both are I.A.

| Liver Microsome Stability (Multiple Species): Rat - % Remaining after 30 min w/NADPH [1] [%] | Liver Microsome Stability (Multiple Species): Mouse - % Remaining after 30 min w/NADPH [2] [%] | Liver Microsome Stability (Multiple Species): Human - % Remaining after 30 min w/NADPH [3] [%] | Liver Microsome Stability (Multiple Species): Monkey - % Remaining after 30 min w/NADPH [4] [%] | IC50 [5] [nM] | IC50 [6] [nM] | IC50 ([5]; mean) [nM] | IC50 ([6]; mean) [nM] | Compound | 24 hr Dox Inducible IL2FLGluc 293FRT/TO: IL2/PD1 [5] | 24 hr Dox Inducible IL2FLGluc 293FRT/TO: IL2/PD1 [5, 7] |
| --- | --- | --- | --- | --- | --- | --- | --- | --- | --- | --- |
| 3.31 | 2.9 | 3.9 | 6.02 | – | – | – | – | CC1=NC(/C=C/c2csc(NC(=O)c3cccn3Cc3ccncc3)n2)CO1 (centres unmarked) [Compound B14] | – | – |
| 0.28 | 0.34 | 0.11 | 0.4 | – | – | – | – | CN1C(=O)OCC1/C=C/c1csc(NC(=O)c2cccn2Cc2ccncc2)n1 (centres unmarked) [Compound B15, (E)-N-(4-(2-(3-methyl-2-oxooxazolidin-4-yl)vinyl)thiazol-2-yl)-1-(pyridin-4-ylmethyl)-1H-pyrrole-2-carboxamide] | – | – |
| 1.18 | 0.83 | 0.05 | 0.03 | – | – | – | – | CN1C(=O)CCCC1/C=C/c1csc(NC(=O)c2cccn2Cc2ccncc2)n1 (centres unmarked) [Compound B19, (E)-N-(4-(2-(1-methyl-6-oxopiperidin-2-yl)vinyl)thiazol-2-yl)-1-(pyridin-4-ylmethyl)-1H-pyrrole-2-carboxamide] | – | – |
| – | – | – | – | > 25000 | 5420 | – | – | Cn1ccnc1/C=C/c1csc(NC(=O)c2cccn2Cc2ccncc2)n1 [Compound B20, (E)-N-(4-(2-(1-methyl-1H-imidazol-2-yl)vinyl)thiazol-2-yl)-1-(pyridin-4-ylmethyl)-1H-pyrrole-2-carboxamide] | >4.6 | – |
| 0.2 | 0.15 | 0.07 | 0.08 | – | – | – | – | N#CC[C@@H]1CC[C@H]1Cn1cccc1C(=O)Nc1nc([C@H]2CCCN2c2ccccc2)cs1 [Compound C18, 1-(((1R,2S)-2-(cyanomethyl)cyclobutyl)methyl)-N-(4-((R)-1-phenylpyrrolidin-2-yl)thiazol-2-yl)-1H-pyrrole-2-carboxamide] | – | – |
| 3.9 | 3.48 | 3.59 | 8.4 | – | – | – | – | N#CCC1(Cn2cccc2C(=O)Nc2nc([C@H]3CCCN3c3ccccc3)cs2)COC1 [Compound C19, (R)-1-((3-(cyanomethyl)oxetan-3-yl)methyl)-N-(4-(1-phenylpyrrolidin-2-yl)thiazol-2-yl)-1H-pyrrole-2-carboxamide] | – | – |
| – | – | – | – | – | – | > 25000 | 7970 | O=C(Nc1nc([C@H]2CCCN2c2ccccc2)cs1)c1cccn1CCCCc1cnn[nH]1 [Compound C26, (R)-1-(4-(1H-1,2,3-triazol-5-yl)butyl)-N-(4-(1-phenylpyrrolidin-2-yl)thiazol-2-yl)-1H-pyrrole-2-carboxamide] | – | >3.1 |
| – | – | – | – | – | – | 56.8 | 17.5 | O=C(Nc1nc([C@H]2CCCN2c2ccccc2)cs1)c1cccn1Cc1ccncc1F [Compound E27, (R)-1-((3-fluoropyridin-4-yl)methyl)-N-(4-(1-phenylpyrrolidin-2-yl)thiazol-2-yl)-1H-pyrrole-2-carboxamide] | – | 3.2 |
| – | – | – | – | – | – | 2980 | 315 | CC(C)c1cccc(/C=C/c2csc(NC(=O)c3cccn3Cc3ccncc3)n2)n1 [Compound E55, (E)-N-(4-(2-(6-isopropylpyridin-2-yl)vinyl)thiazol-2-yl)-1-(pyridin-4-ylmethyl)-1H-pyrrole-2-carboxamide] | – | 9.5 |

The next lines start with the compound.

| Compound | Liver Microsome Stability (Multiple Species): Rat - % Remaining after 30 min w/NADPH [1] [%] | Liver Microsome Stability (Multiple Species): Mouse - % Remaining after 30 min w/NADPH [2] [%] | Liver Microsome Stability (Multiple Species): Human - % Remaining after 30 min w/NADPH [3] [%] | Liver Microsome Stability (Multiple Species): Monkey - % Remaining after 30 min w/NADPH [4] [%] | IC50 [5] [nM] | IC50 [6] [nM] | IC50 ([5]; mean) [nM] | IC50 ([6]; mean) [nM] | 24 hr Dox Inducible IL2FLGluc 293FRT/TO: IL2/PD1 [5] | 24 hr Dox Inducible IL2FLGluc 293FRT/TO: IL2/PD1 [5, 7] |
| --- | --- | --- | --- | --- | --- | --- | --- | --- | --- | --- |
| O=C(Nc1nc([C@H]2CCCN2c2ccc(OC3CCNCC3)cc2)cs1)c1cccn1Cc1ccncc1 [Compound A6, (R)-N-(4-(1-(4-(piperidin-4-yloxy)phenyl)pyrrolidin-2-yl)thiazol-2-yl)-1-(pyridin-4-ylmethyl)-1H-pyrrole-2-carboxamide] | 44.8 | 37.4 | 25.7 | 25.4 | – | – | – | – | – | – |
| CCc1ccc(N2CCC[C@@H]2c2csc(NC(=O)c3cccn3Cc3ccncc3)n2)cc1 [Compound A22, (R)-N-(4-(1-(4-ethylphenyl)pyrrolidin-2-yl)thiazol-2-yl)-1-(pyridin-4-ylmethyl)-1H-pyrrole-2-carboxamide] | 11.7 | 15.8 | 29.1 | 17.6 | – | – | – | – | – | – |
| CC(C)c1ccc(N2CCC[C@@H]2c2csc(NC(=O)c3cccn3Cc3ccncc3)n2)cc1 [Compound A23, (R)-N-(4-(1-(4-isopropylphenyl)pyrrolidin-2-yl)thiazol-2-yl)-1-(pyridin-4-ylmethyl)-1H-pyrrole-2-carboxamide] | 40.2 | 25.3 | 24.7 | 29.9 | – | – | – | – | – | – |
| O=C(Nc1nc([C@H]2CCCN2c2ccc(C3CC3)cc2)cs1)c1cccn1Cc1ccncc1 [Compound A24, (R)-N-(4-(1-(4-cyclopropylphenyl)pyrrolidin-2-yl)thiazol-2-yl)-1-(pyridin-4-ylmethyl)-1H-pyrrole-2-carboxamide] | 35.9 | 19.9 | 22.4 | 22.5 | – | – | – | – | – | – |
| O=C(Nc1nc([C@H]2CCCN2c2cnccn2)cs1)c1cccn1Cc1ccncc1 [Compound A30, (R)-N-(4-(1-(pyrazin-2-yl)pyrrolidin-2-yl)thiazol-2-yl)-1-(pyridin-4-ylmethyl)-1H-pyrrole-2-carboxamide] | 0.21 | 0.86 | 0.27 | 0.03 | – | – | – | – | – | – |
| O=C(Nc1nc([C@H]2CCCN2c2ncccn2)cs1)c1cccn1Cc1ccncc1 [Compound A32, (R)-1-(pyridin-4-ylmethyl)-N-(4-(1-(pyrimidin-2-yl)pyrrolidin-2-yl)thiazol-2-yl)-1H-pyrrole-2-carboxamide] | 0.55 | 0.17 | 0.24 | 0.05 | – | – | – | – | – | – |
